In patent US20040208866A1, “Methods of regulating body weight” (priority 2002, published 2004):

Tests used:
[1] = system: antral portion of the stomach; assay: Gastrointestinal contractility: distance between transducing crystals on the antral stomach; type: in vivo, Sprague-Dawley rats
Source text: Two male Sprague-Dawley rats, approximately 12 weeks old (Harlan, Indianapolis, Ind.) were anesthetized with urethane and their stomachs were exposed through a small abdominal incision. Two 2.4 mm transducing crystals (Sonometrics, Ontario, Canada) were placed on the antral portion of the stomach such that circular contractions could be monitored as a change in the distance between the two crystals. The crystals were attached with VETBOND TISSUE ADHESIVE (3M, St. Paul, Minn.). […] The amplitude of the NE-induced decrease was approximately 50% of the acetylcholine-induced increase in distance. Both responses were transient. A negative control of […] of phosphate buffer solution (PBS) applied topically between the crystals had no effect. A 14 amino acid zsig33 peptide (zsig33-1, as shown in Example 4) was dissolved in PBS and […] was applied topically for a final concentration of 1 μg, 10 μg or 100 μg.

ob/ob mice [2] = assay: Body weight, food intake and glucose clearance, 14-day oral dosing; type: in vivo; settings: 1 μg/mouse orally twice daily for fourteen days, versus scrambled peptide
Method: Sixteen female ob/ob mice, 8 weeks old, (Jackson Labs, Bar Harbor, Me.) were adapted to a special 4 hour daily feeding schedule for two weeks. The were fed ad libitum from 7:30-11:30 am daily. After two weeks on the feeding schedule, the mice were divided into two groups of 8. One group was given 1.0 μg/mouse of zsig33-1 (14 amino acid peptide) and the other vehicle (a 14 amino acid scrambled sequence peptide) in […] sterile 0.1% BSQA by oral gavage just prior to receiving food, and at the end of the 4 hour feeding period. The mice were […] twice daily for fourteen days, during which time food intake and body weight was measured daily. On day 14, immediately after the second oral gavage of the zsig33-1 peptide, the mice were challenged orally with an 0.5 ml volume of 25% glucose. Retro-orbital bleeds were done to determine serum glucose levels immediately prior to administration of the zsig33-1 peptide or vehicle ([…].), and also at 0, 1, 2, and 4 hours following the glucose challenge.

[3] = system: stomachs of fasted male Sprague-Dawley rats; assay: Gastric emptying: transit of phenol red through the stomach; type: in vivo; settings: 1 μg applied topically to the stomach 5 minutes after gavage, read 30 minutes after the gavage
Method: The effect of topically applied zsig33 peptide (amino acid 24 to 37 of SEQ ID NO: 2) on the transit of phenol red through the stomachs of fasted male Sprague-Dawley rats (Harlan, Indianapolis, Ind.) was evaluated. The rats (6 animals, 8 weeks old) were fasted 24 hrs prior to being anesthetized with urethane (0.5 ml/100 grams of 25% solution). After anesthetizing, the animals were orally gavaged with 1 ml of Phenol Red solution (50 μg/ml in 2% methylcellulose solution).
The stomach of each animal was exposed through a small abdominal incision and either 1 μg zsig33 peptide or a 14 amino acid control of a scrambled sequence peptide was applied topically to the stomach five minutes following the gavage. The amount of Phenol Red remaining in the stomach was determined by measuring optical density of the extracted stomach contents 30 minutes after the gavage.

Balb C male mice = assay: Binding studies of FITC-labelled zsig33 peptides in situ after tail vein injection; type: in vivo; settings: FITC-labelled peptide, 0.5 mg per mouse by tail vein, 15 minutes circulation, fluorescent microscopy at 495 nm
Method: Ten week old Balb C male mice were anesthetized via intramuscular injection and tested for binding of zsig33 peptides in vivo.
Two peptides were tested: the first peptide, zsig33-1, (See Example 4) consisted of residues 24 to 37 of SEQ ID NO:2, and the second peptide, zsig33-2, consisted of residues 24 to 41 of SEQ ID NO:2. A single glycine was used as a negative control. Additionally, a “scrambled” negative control consisting of residues the first peptide which had been rearranged (SEQ ID NO:15) was also tested. The peptides and controls were coupled to fluorescein isothiocyantate (FITC, Molecular Probes, Eugene, Oreg.) in the following manner: The peptides, glycine control and FITC were dissolved in 0.1 M sodium bicarbonate at pH 9.0 to a concentration of 2.0 mg/ml for the peptides and glycine control and 5 mg/ml for FITC, avoiding exposure of the FITC to strong light. […] The buffer was changed daily and unbound FITC in the post-dialyzed buffer was measured by HPLC. […] Peptide- or glycine-bound FITC was determined by measuring the absorbance of the dialyzed FITC-bound material at 498 nm and dividing by the extinction coefficient of fluorescein, […]. The molar ratio of fluorescein to peptide (mole FITC/mole peptide) was then determined. […]

ob/ob mice [4] = assay: Glucose absorption after oral glucose challenge; type: in vivo; settings: 100 μg by oral gavage 30 minutes prior to oral glucose challenge, female ob/ob mice
Method: Eight female ob/ob mice, approximately 6 weeks old (Jackson Labs, Bar Harbor, Me.) were adapted to a 4 hour daily feeding schedule for two weeks. After two weeks on the feeding schedule, the mice were given 100 μg of a zsig33 peptide (zsig33-1, as shown in Example 4) in 100 μl sterile 0.1% BSA by oral gavage, immediately after their eating period (post-prandially). Thirty minutes later, the mice were challenged orally with a 0.5 ml volume of 25% glucose. Retroorbital bleeds were done to determine serum glucose levels. Blood was drawn prior to zsig33 dosing, prior to oral glucose challenge, and at 1, 2, 4, and 20 hours following the glucose challenge.

Compound	amplitude of the NE-induced decrease relative to the acetylcholine-induced increase in distance ([1]; 10 ml of 1 mM applied topically)	change in distance between the two crystals ([1]; 10 ml of 1 mM applied topically to the stomach, anesthetized rats)	daily body weight (ob/ob mice [2])	daily food intake (ob/ob mice [2])	reduction of the amount of Phenol Red remaining in the stomach compared to a scrambled peptide [3]	fluorescence in duodenum, jejunum and kidney compared to the glycine and scrambled controls (Balb C male mice)	change in crystal distance ([1]; 1 μg peptide in PBS applied topically)	rate and amplitude of the contractions ([1]; 10 μg and 100 μg applied topically, compared with 1 μg)	post-prandial glucose absorption (serum glucose) (ob/ob mice [4])
NC[C@H](O)c1ccc(O)c(O)c1 [norepinephrine, reference compound]	approximately 50%	reduction in the distance between the two crystals							
zsig33-1: 14 amino acid peptide corresponding to residue 24 (Gly) to residue 37 (Gln) of SEQ ID NO:2 (GSSFLSPEHQRVQQ; listed as Homo sapiens)			no affect	no affect	approximately 25%	increased fluorescence in duodenum, jejunum and in the collecting ducts and convoluted tubules of the kidney	sustained, rhythmic increase and decrease in crystal distance	enhanced responses in both rate and amplitude	enhanced post-prandial glucose absorption
zsig33-2: peptide consisting of residues 24 to 41 of SEQ ID NO:2 (GSSFLSPEHQRVQQRKES; listed as Homo sapiens)						increased fluorescence in duodenum, jejunum and in the collecting ducts and convoluted tubules of the kidney			
